# Read-outs that look alike come from different tables or passages of the source.
# Key:
# [1] = IV pharmacokinetics in mice; type: in vivo, Balbc mice
# Experimental: (§1) The pharmacokinetic (PK) parameters for PFK-158 were determined in mice following IV (intravenous) administration in mice and rats. A typical study design includes six animals (male or female) 7 to 8 weeks old.
# (§2) Mouse pharmacokinetic properties using a dose of 5 mg/kg were determined after IV administration using a 10% DMSO, 10% PEG-200, 10% Solutol:ethanol (1:1) and 70% D5W solution or any other pharmaceutically acceptable parenteral formulation. Blood samples were collected at different intervals. Plasma samples were extracted and analyzed using an LC-MS/MS method. Similar protocols were used for the rat PK study (Sprague Dawley rats; 30 mg/kg), although the formulation for rat PK studies differed (30% Captisol, pH 3.0 solution). Time vs. plasma concentration plots were prepared as shown in FIGS. 4 (BalbC mice) and 5 (SD rats), respectively. Pharmacokinetic parameters were calculated and are provided below in Table 7.
# [2] = Chemical stability of Cremophor based IV formulation; type: physicochemical; settings: about 1 mg/ml in Cremophor:ethyl alcohol 1:1 diluted 1:9 in saline, WFI, lactate Ringer's or D5W
# Experimental: PFK-158 and its salts can be prepared in a Cremophor® based formulation. In one embodiment, 10 mg PFK-158 are dissolved in 1 ml of 1:1 v:v Cremophor®:ethyl alcohol solution using vigorous stirring. Once the compound is effectively dissolved, the solution is filtered and then added to saline, water for injection, lactate Ringer's, or D5W in a 1:9 ratio, resulting in a clear solution, free from particles, with a PFK-158 concentration of about 1 mg/ml. The composition is chemically stable for at least 6 hours and can be administered to mammals, including humans.
# [3] = test system: Jurkat cell line (leukemia cell line); assay: Toxicity / cell growth of Jurkat cell line; type: cell-based; settings: Homo sapiens
# Experimental: The ability of PFK-158 to kill or inhibit the proliferation of cancer cells was measured using either the MTT assay, the alamarBlue® assay (Invitrogen, Grand Island, N.Y.), or the CellTiter Glo™ assay (Promega, Madison, Wis.) using 48 or 72 hours exposure.
# Cells of the desired tumor cell line were plated at 2×10^5 cells/ml in 96 well plates. Twice the indicated concentrations of the compounds of the invention were added to cells the following day in an equal volume of media. 72 hours later, cells were lysed and subjected to ATP determination using the CellTiter-Glo™ Luminescent Cell Viability Assay kit. Experiments were performed in triplicate. When using the MTT assay or the alamarBlue® assay, the experimental conditions are essentially similar; at the end of the incubation period, 20 microliters of the MTT solution is added per well and the samples are incubated for an additional four hours, rinsed, and absorbance at 570 nm was measured. Results for the inhibition of cell proliferation are reported as the IC50 (the concentration resulting in 50% inhibition of proliferation of the cell population) and are listed in Table 5 below. Cell lines include lung, colon, prostate, breast, ovarian, and pancreatic cancer lines.
# PFKFB3 = PFKFB3 (Homo sapiens, UniProt Q16875); assay: Enzymatic activity of PFKFB3 in cells (F2,6BP levels, Van Schaftingen method); type: cell-based; set-up: endogenous in cells; host or cells: Jurkat cells
# Experimental: Inhibition of PFKFB3 can also be measured in cells by measuring fructose-2,6-biphosphate levels according to the Van Schaftingen method (Eur. J. of Biochem, 129: 191 (1982)). This method enables measurement of the inhibition in a cellular environment, a model more relevant than the pure recombinant protein. Briefly, Jurkat cells were plated at 1×10^5 cells/mL and incubated with different concentrations of PFK-158 for 3 hours. Samples were collected and cells were lysed. Extracts were characterized as described in previous reports and normalized to protein concentration.
# [4] = Repeat-dose toxicology study in SD rats; type: in vivo
# Experimental: Toxicology studies were performed in SD rats comparing PFK-158 and PFK-015 using a repeat dosing schedule. The studies were performed at dose levels ranging from 5 to 30 mg/kg and animals were monitored for weight loss, behavior, clinical signs, and clinical chemistries. At the end of the study, gross pathology and histopathology were performed.
# Jurkat cells = assay: Inhibition of 14C-2-deoxyglucose uptake; type: cell-based; settings: Homo sapiens, Jurkat cells
# Experimental: Inhibition of PFKFB3 results in inhibiting glycolysis. Several feedback or feedforward activation and inhibition mechanisms exist so that, by a feedback mechanism, inhibiting the activity of PFKFB3 might inhibit glucose uptake by cells. An assay was developed to determine if there was inhibition of glucose uptake following exposure PFK-158. Briefly, Jurkat cells were plated at 10^5 cells/mL in RPMI 1640 supplemented with 10% fetal bovine serum and 50 μg/mL gentamicin sulfate. Cells were immediately treated with vehicle or 0.5 μmol/L of PFK-158 for 3 hours and subsequently placed in glucose-free RPMI 1640 for 30 min. ^14C-2-deoxyglucose (0.25 μCi/mL; Perkin Elmer) was added for an additional 60 min and cells were then washed three times with ice-cold RPMI 1640 containing no glucose. Cell lysates were collected in 500 μL of 0.1% SDS and scintillation counts (counts/min) were measured on 400 μL of lysate. Counts were normalized to protein concentration.
# [5] = IV pharmacokinetics in rats, 30 mg/kg; type: in vivo; settings: Table 7, Rat (30 mg/kg), Sprague Dawley rats
# Experimental: as §1, §2
# [6] = Table 7, Mouse (5 mg/kg), IV, Balbc mice
# [7] = mouse, plasma, 5 mg/kg, Table 2, Balbc mice, IV dosing
# PFKFB3, sequence (Q16875 whole entry): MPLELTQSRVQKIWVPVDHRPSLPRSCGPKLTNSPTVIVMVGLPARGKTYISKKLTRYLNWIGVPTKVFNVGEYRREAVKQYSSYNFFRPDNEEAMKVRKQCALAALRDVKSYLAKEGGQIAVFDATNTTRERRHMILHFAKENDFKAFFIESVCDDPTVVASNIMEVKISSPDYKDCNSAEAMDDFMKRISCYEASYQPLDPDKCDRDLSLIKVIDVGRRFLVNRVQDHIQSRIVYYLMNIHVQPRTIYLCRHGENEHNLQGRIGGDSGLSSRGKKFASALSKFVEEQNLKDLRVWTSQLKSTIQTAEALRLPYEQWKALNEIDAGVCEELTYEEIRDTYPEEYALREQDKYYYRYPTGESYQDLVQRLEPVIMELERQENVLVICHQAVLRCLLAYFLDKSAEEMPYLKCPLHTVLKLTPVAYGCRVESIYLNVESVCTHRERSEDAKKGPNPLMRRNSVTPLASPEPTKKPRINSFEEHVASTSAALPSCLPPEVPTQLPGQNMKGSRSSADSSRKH
compound,measurement,setting,value
"O=C(/C=C/c1ccc2ccc(C(F)(F)F)cc2n1)c1ccncc1 [PFK-158, (E)-1-(pyridyn-4-yl)-3-(7-(trifluoromethyl)quinolin-2-yl)-prop-2-en-1-one]",AUC(0-inf),[1]; [6],"3,235 ng · h/ml"
same,Cmax,[1]; [6],"4,176 ng/mL"
same,T1/2b,[1]; [6],10.4 h
same,AUC(0-inf),"[1]; Table 9, BalbC mice, IV dosing",3235 ng·h/mL
same,T1/2,"[1]; Table 9, BalbC mice, IV dosing",10.5 h
same,clearance,[1]; [7],26 mL/min/kg
same,half-life,[1]; [7],10.5 h
same,AUC(0-inf),"[1]; mouse, plasma, 5 mg/kg, Table 2, Balbc mice, IV dosing, read-out: AUC0-inf",3240 ng·h/mL
same,Cmax,"[1]; mouse, plasma, 5 mg/kg, Table 2, Balbc mice, IV dosing, read-out: Cmax",4180 ng/mL
same,chemical stability of composition,[2],at least 6 hours
same,IC50,"[3]; Jurkat, Table 1, read-out: IC50, toxicity of Jurkat cell line (leukemia cell line)",330 ± 100 nM
same,IC50,"[3]; Table 6, Jurkat cells, read-out: IC50 Cell Growth",328 ± 15 nM
same,IC50,"PFKFB3; FIG. 3, Jurkat cells, 3 hours, read-out: IC50, PFKFB3 in cells by fructose-2,6-biphosphate levels",1600 ± 800 nM
same,IC50,"PFKFB3; Table 1, F2,6BP levels, Jurkat cells, read-out: IC50, Enzymatic activity of PFKFB3 in cells",1600 ± 800 nM
same,IC50,"PFKFB3; Table 6, Jurkat cells, read-out: IC50 Cellular PFKFB3 (F2,6BP)",1620 ± 400 nM
same,IC50,"PFKFB3; Table 8, read-out: IC50, Enzymatic activity of PFKFB3 in cells",1600 ± 800 nM
same,MTD,"[4]; rat, in vivo, repeat dosing schedule",> 30 mg/kg
same,Adverse observations in toxicology study,"[4]; repeat dosing, PFK-158 5 to 30 mg/kg, PFK-015 12 and 25 mg/kg",no adverse observations
same,IC50,"Jurkat cells; FIG. 2, 14C-2-deoxyglucose, read-out: IC50, inhibition of glucose uptake",847 ± 150 nM
same,IC50,"Jurkat cells; Table 1, read-out: IC50, Inhibition of 2 deoxyglucose uptake",800 ± 100 nM
same,IC50,"Jurkat cells; Table 6, read-out: IC50 Glucose Uptake",847 ± 150 nM
same,T1/2b,[5],8.6 h
same,AUC(0-inf),[5]; plasma,3300 ng·h/mL
same,Cmax,[5]; plasma,18900 ng/mL

# Source: patent publication US9649305B2, “PFKFB3 inhibitor and methods of use as an anti-cancer therapeutic” (ADVANCED CANCER THERAPEUTICS, LLC, priority 2012, dated 2017)
